Holding throughout (test): in vitro kinase assay
For one test, the target named is FER (Homo sapiens, UniProt P16591). The class given is biochemical.
The target in another test is RSK1 (Homo sapiens, UniProt Q15418). The class given is biochemical.
The next test addresses RSK2 (Homo sapiens, UniProt P51812). The class given is biochemical.
Another test has as its target AMPK. The class given is biochemical, Homo sapiens. The following applies: read-out: Ceritinib.
The next test deals with OSR1 (Homo sapiens, UniProt O95747). The class given is biochemical.
In a further test the target is CAMKK2 (Homo sapiens, UniProt Q96RR4). Format: biochemical.
Chain of CAMKK2 (Q96RR4 2-588): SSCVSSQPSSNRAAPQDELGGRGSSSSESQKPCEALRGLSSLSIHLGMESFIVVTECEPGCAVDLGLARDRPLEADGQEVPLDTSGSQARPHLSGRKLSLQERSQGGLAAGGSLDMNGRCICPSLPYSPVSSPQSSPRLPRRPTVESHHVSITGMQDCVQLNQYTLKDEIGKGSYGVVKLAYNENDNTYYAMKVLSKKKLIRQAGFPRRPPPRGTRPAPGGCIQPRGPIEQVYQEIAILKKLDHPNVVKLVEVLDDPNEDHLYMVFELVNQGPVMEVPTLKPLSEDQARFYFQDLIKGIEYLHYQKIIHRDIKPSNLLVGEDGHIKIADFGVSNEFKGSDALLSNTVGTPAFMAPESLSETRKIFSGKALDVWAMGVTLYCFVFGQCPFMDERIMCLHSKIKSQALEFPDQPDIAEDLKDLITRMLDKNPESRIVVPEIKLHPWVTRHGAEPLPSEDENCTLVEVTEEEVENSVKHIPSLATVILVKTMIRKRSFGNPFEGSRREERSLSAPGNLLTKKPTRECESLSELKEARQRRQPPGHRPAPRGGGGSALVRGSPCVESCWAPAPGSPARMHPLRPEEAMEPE

Chain of RSK1 (Q15418 whole entry): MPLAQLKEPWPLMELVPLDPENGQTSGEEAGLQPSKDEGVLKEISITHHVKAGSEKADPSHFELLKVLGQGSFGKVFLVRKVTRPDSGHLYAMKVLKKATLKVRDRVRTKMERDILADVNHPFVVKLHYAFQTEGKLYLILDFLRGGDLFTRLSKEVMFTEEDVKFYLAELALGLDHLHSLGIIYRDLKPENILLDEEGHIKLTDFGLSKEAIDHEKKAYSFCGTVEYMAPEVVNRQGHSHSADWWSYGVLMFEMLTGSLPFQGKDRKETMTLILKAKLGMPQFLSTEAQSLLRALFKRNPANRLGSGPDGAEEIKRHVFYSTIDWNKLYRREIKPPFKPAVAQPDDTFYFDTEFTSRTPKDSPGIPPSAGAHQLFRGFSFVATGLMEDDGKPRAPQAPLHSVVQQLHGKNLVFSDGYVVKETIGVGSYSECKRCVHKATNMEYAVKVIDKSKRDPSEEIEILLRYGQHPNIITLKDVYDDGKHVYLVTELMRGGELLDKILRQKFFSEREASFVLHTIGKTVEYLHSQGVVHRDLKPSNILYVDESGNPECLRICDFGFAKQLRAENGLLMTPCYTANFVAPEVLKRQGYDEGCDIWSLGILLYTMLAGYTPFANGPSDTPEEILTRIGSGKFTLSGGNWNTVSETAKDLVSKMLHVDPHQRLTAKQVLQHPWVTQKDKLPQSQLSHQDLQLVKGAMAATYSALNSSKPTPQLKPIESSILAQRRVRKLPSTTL
Chain of RSK2 (P51812 whole entry): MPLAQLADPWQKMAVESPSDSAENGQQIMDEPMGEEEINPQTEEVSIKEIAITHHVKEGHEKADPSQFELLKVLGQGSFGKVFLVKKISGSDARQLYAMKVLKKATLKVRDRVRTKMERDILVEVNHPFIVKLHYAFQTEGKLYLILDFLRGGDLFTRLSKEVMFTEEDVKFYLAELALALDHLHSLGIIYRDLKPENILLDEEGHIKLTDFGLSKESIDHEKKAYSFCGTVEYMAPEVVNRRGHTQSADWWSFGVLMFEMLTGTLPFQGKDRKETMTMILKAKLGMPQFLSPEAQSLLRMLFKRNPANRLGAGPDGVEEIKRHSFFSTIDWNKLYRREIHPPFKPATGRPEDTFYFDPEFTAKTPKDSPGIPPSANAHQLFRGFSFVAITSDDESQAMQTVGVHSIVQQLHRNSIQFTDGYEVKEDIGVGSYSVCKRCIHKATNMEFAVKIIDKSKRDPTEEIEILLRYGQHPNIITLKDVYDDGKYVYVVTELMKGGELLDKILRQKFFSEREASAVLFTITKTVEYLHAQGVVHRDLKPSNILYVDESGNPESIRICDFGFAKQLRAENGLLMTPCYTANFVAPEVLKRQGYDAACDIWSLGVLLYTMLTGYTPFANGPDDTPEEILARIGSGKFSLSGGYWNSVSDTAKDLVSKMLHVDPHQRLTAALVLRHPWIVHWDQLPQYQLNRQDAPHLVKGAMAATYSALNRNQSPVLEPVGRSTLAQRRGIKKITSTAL
Chain of OSR1 (O95747 2-527): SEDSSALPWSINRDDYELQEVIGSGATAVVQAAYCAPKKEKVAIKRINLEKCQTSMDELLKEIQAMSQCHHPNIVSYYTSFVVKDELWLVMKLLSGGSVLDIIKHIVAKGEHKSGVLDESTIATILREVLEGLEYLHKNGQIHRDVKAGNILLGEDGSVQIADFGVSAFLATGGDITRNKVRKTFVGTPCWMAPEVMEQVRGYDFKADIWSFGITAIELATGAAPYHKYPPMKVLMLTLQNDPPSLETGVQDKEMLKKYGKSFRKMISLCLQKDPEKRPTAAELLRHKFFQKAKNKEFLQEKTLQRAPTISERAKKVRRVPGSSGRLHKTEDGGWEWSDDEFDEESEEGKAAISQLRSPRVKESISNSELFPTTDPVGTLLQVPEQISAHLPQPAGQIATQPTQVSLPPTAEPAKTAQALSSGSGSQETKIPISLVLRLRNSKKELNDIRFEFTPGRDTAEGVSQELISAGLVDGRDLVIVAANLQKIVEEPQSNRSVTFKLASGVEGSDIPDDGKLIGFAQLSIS
Chain of FER (P16591 whole entry): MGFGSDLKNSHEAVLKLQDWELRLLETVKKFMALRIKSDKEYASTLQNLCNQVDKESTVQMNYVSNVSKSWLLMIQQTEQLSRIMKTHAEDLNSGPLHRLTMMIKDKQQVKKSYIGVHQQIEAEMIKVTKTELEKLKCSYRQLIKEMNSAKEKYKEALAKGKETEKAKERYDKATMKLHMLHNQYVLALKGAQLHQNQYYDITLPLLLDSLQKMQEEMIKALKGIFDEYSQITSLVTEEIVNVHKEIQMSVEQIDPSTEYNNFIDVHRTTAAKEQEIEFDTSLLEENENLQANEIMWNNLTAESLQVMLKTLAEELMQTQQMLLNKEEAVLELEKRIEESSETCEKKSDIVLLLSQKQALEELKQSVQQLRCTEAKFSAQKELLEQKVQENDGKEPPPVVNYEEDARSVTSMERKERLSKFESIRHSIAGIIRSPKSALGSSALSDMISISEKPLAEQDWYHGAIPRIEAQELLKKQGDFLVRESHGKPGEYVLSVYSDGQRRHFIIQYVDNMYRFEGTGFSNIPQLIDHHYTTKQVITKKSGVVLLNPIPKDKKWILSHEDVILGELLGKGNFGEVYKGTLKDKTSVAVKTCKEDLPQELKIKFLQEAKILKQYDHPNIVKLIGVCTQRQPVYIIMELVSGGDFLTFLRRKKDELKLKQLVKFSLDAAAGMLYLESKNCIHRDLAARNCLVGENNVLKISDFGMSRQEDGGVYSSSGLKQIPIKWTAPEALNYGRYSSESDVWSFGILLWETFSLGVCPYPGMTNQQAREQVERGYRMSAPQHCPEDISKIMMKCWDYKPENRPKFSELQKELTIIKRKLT

Take `Cc1cc(Nc2ncc(Cl)c(Nc3ccccc3S(=O)(=O)C(C)C)n2)c(OC(C)C)cc1C1CCNCC1` [ceritinib]: the IC50 was found to be 11.7 nM on FER; 966 nM on RSK1; 418 nM against RSK2; 2360 nM at AMPK; 881 nM against OSR1; 75.3 nM on CAMKK2.

(Values after publication PMC5752595 (Molecular cancer therapeutics, 2017).)
